Laboratory results: PubChem BioAssay AID1963436 (Molecular Pharmacology Branch, DTP, NCI, 2024)

Tested on: OVCAR-5 complex spheroid (HUVEC/MSC), viability % T/C
Experiment: Anticancer human tumor OVCAR-5 cell line growth inhibition [Asc];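 further: spheroids exposed to agents for 7 days before readout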;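 on viability, T/C: 100% = DMSO vehicle-treated wells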
Settings: for IC50: curve of first compound; for viability, T/C: stronger effect = lower value
How it was run: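 Stromal components (HUVEC and hMSC) are co-assembled with the cancer cells into multicellular spheroids. Drugs are then added singly or paired, at concentrations falling by half-log increments from a clinically achievable maximum, capped at 10 microM without known Cmax.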

[1] = second compound 0.01 µM, first compound 0.0316 µM
[2] = second compound 0.01 µM, first compound 0.1 µM
[3] = second compound 0.01 µM, first compound 0.316 µM
[4] = second compound 0.01 µM, first compound 1 µM
[5] = second compound 0.0316 µM, first compound 0.0316 µM
[6] = second compound 0.0316 µM, first compound 0.1 µM
[7] = second compound 0.0316 µM, first compound 0.316 µM
[8] = second compound 0.0316 µM, first compound 1 µM
[9] = second compound 0.1 µM, first compound 0.0316 µM
[10] = second compound 0.1 µM, first compound 0.1 µM
[11] = second compound 0.1 µM, first compound 0.316 µM
[12] = second compound 0.1 µM, first compound 1 µM
[13] = second compound 0.316 µM, first compound 0.0316 µM
[14] = second compound 0.316 µM, first compound 0.1 µM
[15] = second compound 0.316 µM, first compound 0.316 µM
[16] = second compound 0.316 µM, first compound 1 µM
[17] = second compound 1 µM, first compound 0.0316 µM
[18] = second compound 1 µM, first compound 0.1 µM
[19] = second compound 1 µM, first compound 0.316 µM
[20] = second compound 1 µM, first compound 1 µM

With C=CC(=O)N1CCN(c2nc(=O)n(-c3c(C)ccnc3C(C)C)c3nc(-c4c(O)cccc4F)c(F)cc23)C(C)C1 (stereo not given) + CNC(C)C(=O)NC1CN(S(=O)(=O)c2cccc(S(=O)(=O)N3CCC4CCC(C(=O)NC(c5ccccc5)c5ccccc5)N4C(=O)C(NC(=O)C(C)NC)C3)c2)CCC2CCC(C(=O)NC(c3ccccc3)c3ccccc3)N2C1=O the IC50 (second compound 0.01 µM) was greater than 10000 nM, the IC50 (second compound 0.0316 µM) was greater than 10000 nM and the IC50 (second compound 0.1 µM) was greater than 10000 nM. For the same molecule, the IC50 (second compound 0.316 µM) was greater than 10000 nM, the IC50 (second compound 1 µM) was greater than 10000 nM and the viability, T/C [1] was 88.4%. For the same molecule, the viability, T/C [2] was 89.9%, the viability, T/C [3] was 85.9% and the viability, T/C [4] was 100%. The viability, T/C (second compound 0.01 µM, first compound 3.16 µM) was 115%, the viability, T/C (second compound 0.01 µM, first compound 10 µM) was 105% and the viability, T/C [5] was 74.4%. It also gave a viability, T/C [6] of 84.4%, a viability, T/C [7] of 83.3% and a viability, T/C [8] of 91.2%. It also gave a viability, T/C (second compound 0.0316 µM, first compound 3.16 µM) of 106%, a viability, T/C (second compound 0.0316 µM, first compound 10 µM) of 104% and a viability, T/C [9] of 76.3%. The viability, T/C [10] was 87%, the viability, T/C [11] was 90.6% and the viability, T/C [12] was 88.2%. The viability, T/C (second compound 0.1 µM, first compound 3.16 µM) was 109%, the viability, T/C (second compound 0.1 µM, first compound 10 µM) was 103% and the viability, T/C [13] was 76.4%. The viability, T/C [14] was 83.5%, the viability, T/C [15] was 84.9% and the viability, T/C [16] was 90.4%. For the same molecule, the viability, T/C (second compound 0.316 µM, first compound 3.16 µM) was 104%, the viability, T/C (second compound 0.316 µM, first compound 10 µM) was 109% and the viability, T/C [17] was 92.9%. It also gave a viability, T/C [18] of 100%, a viability, T/C [19] of 90.4% and a viability, T/C [20] of 96.7%. For the same molecule, the viability, T/C (second compound 1 µM, first compound 3.16 µM) was 103% and the viability, T/C (second compound 1 µM, first compound 10 µM) was 102%.

In the case of CCN1CCN(Cc2ccc(Nc3ncc(F)c(-c4cc(F)c5nc(C)n(C(C)C)c5c4)n3)nc2)CC1 + CNC(C)C(=O)NC1CN(S(=O)(=O)c2cccc(S(=O)(=O)N3CCC4CCC(C(=O)NC(c5ccccc5)c5ccccc5)N4C(=O)C(NC(=O)C(C)NC)C3)c2)CCC2CCC(C(=O)NC(c3ccccc3)c3ccccc3)N2C1=O, the IC50 (second compound 0.01 µM) is reported as greater than 1000 nM, the IC50 (second compound 0.0316 µM) is reported as greater than 1000 nM and the IC50 (second compound 0.1 µM) is reported as greater than 1000 nM. It also gave an IC50 (second compound 0.316 µM) of 642 nM, an IC50 (second compound 1 µM) greater than 1000 nM and a viability, T/C (second compound 0.01 µM, first compound 0.00316 µM) of 87.1%. For the same molecule, the viability, T/C (second compound 0.01 µM, first compound 0.01 µM) was 83.2%, the viability, T/C [1] was 67.7% and the viability, T/C [2] was 59.5%. For the same molecule, the viability, T/C [3] was 62.7%, the viability, T/C [4] was 49.9% and the viability, T/C (second compound 0.0316 µM, first compound 0.00316 µM) was 76%. The viability, T/C (second compound 0.0316 µM, first compound 0.01 µM) was 71.9%, the viability, T/C [5] was 58.4% and the viability, T/C [6] was 55.2%. It also gave a viability, T/C [7] of 57.2%, a viability, T/C [8] of 49.3% and a viability, T/C (second compound 0.1 µM, first compound 0.00316 µM) of 76.8%. For the same molecule, the viability, T/C (second compound 0.1 µM, first compound 0.01 µM) was 67.2%, the viability, T/C [9] was 55.4% and the viability, T/C [10] was 50%. It also gave a viability, T/C [11] of 55%, a viability, T/C [12] of 47% and a viability, T/C (second compound 0.316 µM, first compound 0.00316 µM) of 69.3%. It also gave a viability, T/C (second compound 0.316 µM, first compound 0.01 µM) of 70.3%, a viability, T/C [13] of 59% and a viability, T/C [14] of 54.8%. The viability, T/C [15] was 52%, the viability, T/C [16] was 49.4% and the viability, T/C (second compound 1 µM, first compound 0.00316 µM) was 76.8%. The viability, T/C (second compound 1 µM, first compound 0.01 µM) was 65.3%, the viability, T/C [17] was 65.9% and the viability, T/C [18] was 58.9%. The viability, T/C [19] was 51.9% and the viability, T/C [20] was 51.5%.
